17 compounds from US9102617B2, “Antimicrobial agents” (Rutgers, The State University of New Jersey, priority 2010, dated 2015) can be followed below.

Experiment [1] has as its system methicillin-sensitive Staphylococcus aureus (MSSA). Description: Planktonic antibacterial broth microdilution assay (Test C), MIC vs MSSA. Format: cell-based. Conditions: 37° C., growth read after 24 to 48 hours at OD 600 nm. The method, then:
(§1) Test C. Planktonic (Free-Living) Antibacterial Assay.
(§2) Planktonic antibacterial activity can be determined using a broth microdilution assay in which log-phase bacteria are grown at 37° C. in appropriate medium containing two-fold serial dilutions of a compound to yield a final concentration ranging from 256 to 0.1 μg/ml. For determination of minimal inhibitory concentration (MIC) values, bacterial growth is monitored after 24 to 48 hours by measuring optical density at 600 nm. […] The minimal inhibitory concentration against methicillin-sensitive Staphylococcus aureus (MSSA) for each of the following representative compounds of the invention was determined to be less than 32 μg/ml.

The test system of experiment [2] is methicillin-resistant Staphylococcus aureus (MRSA). Briefly: Planktonic antibacterial broth microdilution assay (Test C), MIC vs MRSA. Format: cell-based. Conditions: read-out: MIC vs MRSA. The method, then:
as §1, §2
Representative compounds of the invention were also tested against methicillin-resistant Staphylococcus aureus, vancomycin-resistant Enterococcus faecalis and Enterococcus faecium (VRE), vancomycin-sensitive Enterococcus faecalis and Enterococcus faecium (VSE).

The target of the next experiment is T1, S. aureus FtsZ (Staphylococcus aureus, UniProt P0A031).
T1 sequence (P0A031 1-390): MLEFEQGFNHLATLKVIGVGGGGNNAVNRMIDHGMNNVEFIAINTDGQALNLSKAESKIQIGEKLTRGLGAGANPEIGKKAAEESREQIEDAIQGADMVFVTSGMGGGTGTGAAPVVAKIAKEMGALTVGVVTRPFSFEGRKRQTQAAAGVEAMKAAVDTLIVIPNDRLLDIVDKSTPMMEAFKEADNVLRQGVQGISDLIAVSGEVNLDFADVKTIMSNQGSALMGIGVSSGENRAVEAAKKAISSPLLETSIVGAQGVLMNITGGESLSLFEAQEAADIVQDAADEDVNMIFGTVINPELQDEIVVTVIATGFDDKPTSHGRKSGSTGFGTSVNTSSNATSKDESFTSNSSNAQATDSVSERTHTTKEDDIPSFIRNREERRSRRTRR
Description: Inhibition of S. aureus FtsZ polymerization and GTPase activity (Tests A and B). Format: biochemical. The text has this: Test A. Determining the Impact of the Compounds of the Invention on FtsZ Polymerization Dynamics.
Compound-induced alteration in FtsZ polymerization dynamics can be tested using a light scattering-based […] using purified FtsZ. Upon addition of GTP, FtsZ self-associates to form polymeric structures that scatter light at 340 nm to a greater extent than the monomeric protein. The impact of the compounds of the invention on the polymerization dynamics of FtsZ can be detected by an increase of decrease in the extent of GTP-induced light scattering relative to that observed in the absence of compound. Quantitation of the overall extent of light scattering as a function of compound concentration to yield a compound concentration at which FtsZ polymerization is inhibited by 50% (IC50) provides an indication of the potency of that compound at altering FtsZ polymerization dynamics.
Test B. Determining the FtsZ GTPase Inhibitory Activities of Compounds of the Invention.
Compound-induced inhibition of the FtsZ GTPase activity can be tested using a colorimetric assay in which the inorganic phosphate (Pi) released upon FtsZ-catalyzed hydrolysis of GTP reacts with malachite green and molybdate under acidic conditions to form a ternary complex that absorbs light at 650 nm, thus enabling quantitation of Pi levels by recording the absorbance at 650 nm (A650). Differing concentrations of test compound are combined with GTP and the reactions (run in triplicate) are initiated by addition of FtsZ. After incubation for 60 minutes at room temperature, the reactions are stopped by addition of an acidic malachite green-molybdate solution containing malachite green oxalate, sodium molybdate, Triton X-100, and 0.7 N HCl. For the purposes of generating a standard curve, each experiment includes reactions containing known concentrations of monobasic potassium phosphate (KH2PO4) in place of FtsZ. Ten minutes following addition of the acidic malachite green-molybdate solution, the A650 value for each reaction is recorded. A standard curve of A650 versus Pi concentration is constructed using the average A650 value obtained for each known KH2PO4 concentration. This standard curve is then fit by linear regression analysis to yield the quantitative relationship between A650 and Pi concentration. The resulting relationship as well as the average A650 value for each test reaction is used to calculate the concentrations of Pi released by the GTPase activity of FtsZ. The released Pi concentration in the absence of test compound is set as the mark for 100% GTPase activity, and is used to calculate the percent GTPase activities in reactions containing test compounds. The percent GTPase activity is then plotted as a function of log (compound concentration), with the resulting curves being fit using an appropriate sigmoidal relationship to obtain the compound concentrations at which GTPase activity is inhibited by 50% (IC50 values).

The mark [3] stands for this setting: broth microdilution, 37° C., growth read after 24 to 48 hours at OD 600 nm.
[4] abbreviates: S. aureus FtsZ, polymerization and/or GTPase activity, read-out: IC50 (compound concentration at which FtsZ polymerization and/or GTPase activity is inhibited by 50%).

Read-outs that look alike come from different tables or passages of the source. Bounds are passed on as bounds.

For the compound `CCC[n+]1cc(-c2cc(OC)c(OC)c(-c3ccc(C(C)(C)C)cc3)c2)cc2cc(OC)c(OC)cc21.[I-]` [Example 19], the MIC in experiment [1] and in experiment [2] (setting [3]) was not above 8 mg/L in each case. In addition, on S. aureus FtsZ (setting [4]), the IC50 was less than 79.7 µM.

Consider `C[n+]1cc(-c2cc(-c3ccccc3)cc(-c3ccccc3)c2)cc2ccccc21.[I-]` [Example 35], for which the MIC in experiment [1] and in experiment [2] (setting [3]) was not above 8 mg/L throughout.

In the case of `CC(C)(C)c1ccc(-c2cccc3c(CCN)cccc23)cc1` [Example 36], the MIC in experiment [1] and in experiment [2] (setting [3]) was not above 8 mg/L each time.

On to `CC(C)(C)c1ccc(-c2cccc3c(CCN=C(N)N)cccc23)cc1` [Example 37], for which the MIC in experiment [1] and in experiment [2] (setting [3]) was not above 8 mg/L throughout.

On to `CC(C)(C)c1ccc(-c2cccc3c(CN)cccc23)cc1` [Example 41], for which the MIC in experiment [1] and in experiment [2] (setting [3]) was not above 8 mg/L throughout. Further, the IC50 on S. aureus FtsZ (setting [4]) is less than 173 µM.

Consider `CC(C)(C)c1ccc(-c2cccc3c(CNC(=N)N)cccc23)cc1` [Example 42], for which the MIC in experiment [1] and in experiment [2] (setting [3]) was not above 8 mg/L each time. For the same compound, at S. aureus FtsZ (setting [4]), the IC50 is less than 151 µM.

Take `CC(C)(C)c1ccc(-c2cccc3c(CC(=N)N)cccc23)cc1` [Example 56]: the MIC in experiment [1] and in experiment [2] (setting [3]) was not above 8 mg/L each time.

`CN(C)CCNCc1ccccc1-c1ccc2c(-c3ccc(C(C)(C)C)cc3)cccc2c1` [Example 59]: the MIC in experiment [1] and in experiment [2] (setting [3]) was not above 8 mg/L throughout.

Regarding `CNCc1ccccc1-c1ccc2c(-c3ccc(C(C)(C)C)cc3)cccc2c1` [Example 61], the MIC in experiment [1] and in experiment [2] (setting [3]) was not above 8 mg/L in each case.

In the case of `CC(C)(C)c1ccc(-c2cccc3cc(-c4ccccc4CNCCN)ccc23)cc1` [Example 62], the MIC in experiment [1] and in experiment [2] (setting [3]) was not above 8 mg/L in each case.

`CC(C)(C)c1ccc(-c2cccc3cc(-c4ccccc4C[N+](C)(C)C)ccc23)cc1.[I-]` [Example 63]: the MIC in experiment [1] and in experiment [2] (setting [3]) was not above 8 mg/L throughout. In addition, on S. aureus FtsZ (setting [4]), the IC50 was less than 93.4 µM.

As to `NCc1cccc(-c2ccc3c(-c4cccc(-c5ccccc5)c4)cccc3c2)c1` [Example 70], the MIC in experiment [1] and in experiment [2] (setting [3]) was not above 8 mg/L each time.

Compound `CC(C)(C)c1ccc(-c2cccc3cc(-c4ccccc4CNC(=N)N)ccc23)cc1` [Example 104] returned an MIC in experiment [1] not above 8 mg/L. Moreover, the IC50 at S. aureus FtsZ (setting [4]) was less than 123 µM.

As to `C[n+]1ccc2c(-c3ccc(-c4ccccc4)cc3)cccc2c1.[I-]` [Example 112], the minimal inhibitory concentration (MIC) in experiment [1] was not above 8 mg/L; in experiment [2], 32 mg/L. This compound also displayed an IC50 at S. aureus FtsZ of less than 118 µM.

As to `C[n+]1cccc2cc(-c3ccc(-c4ccccc4)cc3)ccc21.[I-]` [Example 114], the MIC in experiment [1] and in experiment [2] (setting [3]) was not above 8 mg/L in each case. The IC50 on S. aureus FtsZ (setting [4]) is less than 118 µM.

As to `C[n+]1cccc2ccc(-c3ccc(-c4ccccc4)cc3)cc21.[I-]` [Example 116], the MIC in experiment [1] was not above 8 mg/L; in experiment [2] (setting [3]) it was 16 mg/L.

Regarding `C[n+]1ccc(-c2ccc(-c3ccccc3)cc2)c2ccccc21.[I-]` [Example 120], the figures for the MIC in experiment [1] and in experiment [2] were not above 8 mg/L and more than 32 mg/L, respectively. On S. aureus FtsZ, this compound showed an IC50 of less than 118 µM.
